From ChEMBL document CHEMBL4330129 (Bioorg Med Chem, 2019)
≈ marks a conversion by molar mass, not a printed value.

tested on: not listed separately; experiment: Binding affinity to FLAG/His-tagged Keap1 (unknown origin)/biotinylated full-length FLAG/His/Tev/Avi-tagged Cul3 (unknown origin) expressed in baculovirus infected Sf9 insect cells measured after 1 hr by TR-FRET assay; design: species or system Homo sapiens; conditions: not given

Row | SMILES | pIC50
1 | O=C(NCCCCN=C=S)c1ccno1 | 4.2
2 | S=C=NCCN1CCSCC1 | < 4
3 | O=C(NCCCCN=C=S)OCc1ccncc1 | 4.6
4 | CN(C)CCC[S+]([O-])CCCCN=C=S (configuration not stated) | < 4
5 | CN(C)CC[S+]([O-])CCCCN=C=S (configuration not stated) | < 4
6 | O=C(NCCCCN=C=S)c1cccnc1 | 4.1
7 | COC(=O)C(CS(=O)(=O)CCCCN=C=S)NC(C)=O (configuration not stated) | 4.3
8 | CN1CCC(SC(=S)NCCCCS(=O)(=O)c2ccncc2)CC1 | 4.5
9 | CC(C)(C)OC(=O)N1CCC(SC(=S)NCCCCNC(=O)NCc2ccccc2)CC1 | 4.7
10 | C[S+]([O-])CCCCNC(=S)SCc1cccc([N+](=O)[O-])c1 (configuration not stated) | < 4
11 | CN1CCC(SC(=S)NCCCCNC(=O)Nc2ccc3ncsc3c2)CC1 | 5.4
12 | COCCOC(=O)NCCCCN=C=S | < 4
13 | O=C(NCCCCN=C=S)Nc1ccc2scnc2c1 | 5.2
14 | CN(C)C(=O)CCCCN=C=S | 4.2
15 | O=C(NCCCCN=C=S)C1CCCCC1 | 4.4
16 | CC(C)(C)OC(=O)N1CCC(SC(=S)NCCCCNC(=O)Nc2ccc3ncsc3c2)CC1 | 4.7
17 | CNC(=O)CCCCN=C=S | 4.1
18 | CN1CCC(SC(=S)NCCCCNC(=O)CC2CCCCC2)CC1 | 5
19 | CC(C)(C)OC(=O)N1CCC(SC(=S)NCCCCNC(=O)Nc2ccc3c(c2)OCCO3)CC1 | 4.4
20 | O=C(NCCCCN=C=S)OCc1ccccc1 | 5.1
21 | CC(=O)NCCCCN=C=S | 4.2

target: Keap1/Nrf2 (Homo sapiens, UniProt Q14145+Q16236); experiment: Binding affinity to FLAG/His-tagged Keap1 (unknown origin)/biotinylated full-length FLAG/His/Tev/Avi-tagged NRF2 (unknown origin) expressed in baculovirus infected Sf9 insect cells measured after 1 hr by TR-FRET assay; conditions: not given
Sequence (Q16236 whole entry): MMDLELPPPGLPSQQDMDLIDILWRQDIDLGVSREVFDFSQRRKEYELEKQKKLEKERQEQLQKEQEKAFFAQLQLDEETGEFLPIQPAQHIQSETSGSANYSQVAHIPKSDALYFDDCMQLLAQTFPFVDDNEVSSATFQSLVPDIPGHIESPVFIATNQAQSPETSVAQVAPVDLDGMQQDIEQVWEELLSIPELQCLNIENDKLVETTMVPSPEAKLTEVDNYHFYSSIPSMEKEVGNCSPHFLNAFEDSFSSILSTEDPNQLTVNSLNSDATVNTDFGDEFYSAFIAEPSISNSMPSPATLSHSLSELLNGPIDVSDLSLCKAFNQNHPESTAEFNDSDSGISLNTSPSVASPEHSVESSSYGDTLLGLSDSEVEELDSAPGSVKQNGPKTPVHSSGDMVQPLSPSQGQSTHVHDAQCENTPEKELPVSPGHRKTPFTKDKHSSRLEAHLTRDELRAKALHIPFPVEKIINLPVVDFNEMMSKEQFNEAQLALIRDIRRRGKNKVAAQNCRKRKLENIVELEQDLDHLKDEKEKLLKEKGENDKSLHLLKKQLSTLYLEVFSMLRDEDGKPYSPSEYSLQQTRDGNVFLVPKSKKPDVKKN
Sequence (Q14145 whole entry): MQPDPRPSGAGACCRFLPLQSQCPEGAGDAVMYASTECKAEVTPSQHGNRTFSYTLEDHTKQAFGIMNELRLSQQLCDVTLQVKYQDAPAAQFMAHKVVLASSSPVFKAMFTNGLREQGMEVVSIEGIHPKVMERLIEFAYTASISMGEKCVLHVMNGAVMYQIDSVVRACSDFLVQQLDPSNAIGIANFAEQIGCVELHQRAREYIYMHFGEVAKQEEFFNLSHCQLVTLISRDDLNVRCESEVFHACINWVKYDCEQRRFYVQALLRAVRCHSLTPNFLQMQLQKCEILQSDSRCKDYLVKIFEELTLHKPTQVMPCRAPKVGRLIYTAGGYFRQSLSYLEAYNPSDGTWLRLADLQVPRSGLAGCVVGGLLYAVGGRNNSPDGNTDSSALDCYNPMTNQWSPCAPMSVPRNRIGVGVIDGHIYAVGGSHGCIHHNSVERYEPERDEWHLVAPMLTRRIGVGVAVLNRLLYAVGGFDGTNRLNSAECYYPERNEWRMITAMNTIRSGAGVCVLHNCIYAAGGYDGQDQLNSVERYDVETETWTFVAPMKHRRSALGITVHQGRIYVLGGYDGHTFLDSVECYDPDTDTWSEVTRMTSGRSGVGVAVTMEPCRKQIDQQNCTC

Row | IC50 [µM] | SMILES
22 | 63.1 | O=C(NCCCCN=C=S)c1ccno1
23 | > 100 | S=C=NCCN1CCSCC1
24 | 39.8 | O=C(NCCCCN=C=S)OCc1ccncc1
25 | > 100 | CN(C)CCC[S+]([O-])CCCCN=C=S (configuration not stated)
26 | > 100 | CN(C)CC[S+]([O-])CCCCN=C=S (configuration not stated)
27 | 50.1 | O=C(NCCCCN=C=S)c1cccnc1
28 | > 100 | COC(=O)C(CS(=O)(=O)CCCCN=C=S)NC(C)=O (configuration not stated)
29 | 100 | CN1CCC(SC(=S)NCCCCS(=O)(=O)c2ccncc2)CC1
30 | 7.94 | CC(C)(C)OC(=O)N1CCC(SC(=S)NCCCCNC(=O)NCc2ccccc2)CC1
31 | > 100 | CC(=O)NCCSC(=S)NCCCC[S+](C)[O-] (configuration not stated)
32 | > 100 | C[S+]([O-])CCCCNC(=S)SCc1cccc([N+](=O)[O-])c1 (configuration not stated)
33 | 7.94 | CN1CCC(SC(=S)NCCCCNC(=O)Nc2ccc3ncsc3c2)CC1
34 | > 100 | COCCOC(=O)NCCCCN=C=S
35 | 5.01 | O=C(NCCCCN=C=S)Nc1ccc2scnc2c1
36 | > 100 | CN(C)C(=O)CCCCN=C=S
37 | 50.1 | O=C(NCCCCN=C=S)C1CCCCC1
38 | 31.6 | CC(C)(C)OC(=O)N1CCC(SC(=S)NCCCCNC(=O)Nc2ccc3ncsc3c2)CC1
39 | > 100 | CNC(=O)CCCCN=C=S
40 | 15.8 | CN1CCC(SC(=S)NCCCCNC(=O)CC2CCCCC2)CC1
41 | 31.6 | CC(C)(C)OC(=O)N1CCC(SC(=S)NCCCCNC(=O)Nc2ccc3c(c2)OCCO3)CC1
42 | 12.6 | O=C(NCCCCN=C=S)OCc1ccccc1
43 | > 100 | CC(=O)NCCCCN=C=S

Row | SMILES | IC50 [µM]
44 | C[S+]([O-])CCCCCCN=C=S (configuration not stated) | > 100

species on record: Homo sapiens; experiment: Activation of Keap1/Cul3/Nrf2 in NHBE cells assessed as induction of HO-1 gene expression at 10 uM after 24 hrs by RT-PCR analysis relative to SFN; assay type: cell-based; conditions: not given

Row | SMILES | fold change (FC)
45 | O=C(NCCCCN=C=S)c1ccno1 | 2.65
46 | S=C=NCCN1CCSCC1 | 0.21
47 | O=C(NCCCCN=C=S)OCc1ccncc1 | 13.3
48 | CN(C)CCC[S+]([O-])CCCCN=C=S (configuration not stated) | 0.27
49 | CN(C)CC[S+]([O-])CCCCN=C=S (configuration not stated) | 0.49
50 | O=C(NCCCCN=C=S)c1cccnc1 | 1.78
51 | COC(=O)C(CS(=O)(=O)CCCCN=C=S)NC(C)=O (configuration not stated) | 0.16
52 | CN1CCC(SC(=S)NCCCCS(=O)(=O)c2ccncc2)CC1 | 2
53 | CC(C)(C)OC(=O)N1CCC(SC(=S)NCCCCNC(=O)NCc2ccccc2)CC1 | 18.6
54 | C[S+]([O-])CCCCNC(=S)SCc1cccc([N+](=O)[O-])c1 (configuration not stated) | 0.39
55 | CN1CCC(SC(=S)NCCCCNC(=O)Nc2ccc3ncsc3c2)CC1 | 25.5
56 | COCCOC(=O)NCCCCN=C=S | 0.17
57 | O=C(NCCCCN=C=S)Nc1ccc2scnc2c1 | 3.75
58 | CN(C)C(=O)CCCCN=C=S | 0.71
59 | O=C(NCCCCN=C=S)C1CCCCC1 | 1.13
60 | CN(C)C(=O)/C(C#N)=C/CCCCCS(C)(=O)=O | 0.18
61 | CC(C)(C)OC(=O)N1CCC(SC(=S)NCCCCNC(=O)Nc2ccc3ncsc3c2)CC1 | 18.3
62 | CNC(=O)CCCCN=C=S | 0.7
63 | CN1CCC(SC(=S)NCCCCNC(=O)CC2CCCCC2)CC1 | 11.5
64 | CC(C)(C)OC(=O)N1CCC(SC(=S)NCCCCNC(=O)Nc2ccc3c(c2)OCCO3)CC1 | 74.8
65 | CN(C)C(=O)/C=C/CCCCC[S+](C)[O-] (configuration not stated) | 0.11
66 | CN(C)C(=O)/C(C#N)=C/CCCCC[S+](C)[O-] (configuration not stated) | 0.33
67 | CC[S+]([O-])C(=O)N(CCCC[S+](C)[O-])Cc1ccccc1 (configuration not stated) | 0.27
68 | CSc1c(N(C)CCCC[S+](C)[O-])c(=O)c1=O (configuration not stated) | 0.14
69 | CN(C)C(=O)/C=C/CCCCCS(C)(=O)=O | 0.13
70 | O=C(NCCCCN=C=S)OCc1ccccc1 | 0.63
71 | CC(=O)NCCCCN=C=S | 0.54

tested on: not listed separately; experiment: Kinetic solubility of the compound at pH 7.4 by CLND method; assay type: physicochemical; conditions: buffer, read-out: Kinetic_solubility

Row | solubility kinetic [µM] | SMILES
72 | ≥ 473 | O=C(NCCCCN=C=S)c1ccno1
73 | ≥ 367 | S=C=NCCN1CCSCC1
74 | 354 (≈ 93.9 µg/mL) | O=C(NCCCCN=C=S)OCc1ccncc1
75 | ≥ 250 | CN(C)CCC[S+]([O-])CCCCN=C=S (configuration not stated)
76 | ≥ 219 | CN(C)CC[S+]([O-])CCCCN=C=S (configuration not stated)
77 | ≥ 289 | O=C(NCCCCN=C=S)c1cccnc1
78 | ≥ 444 | COC(=O)C(CS(=O)(=O)CCCCN=C=S)NC(C)=O (configuration not stated)
79 | ≥ 419 | CN1CCC(SC(=S)NCCCCS(=O)(=O)c2ccncc2)CC1
80 | 34 (≈ 16.3 µg/mL) | CC(C)(C)OC(=O)N1CCC(SC(=S)NCCCCNC(=O)NCc2ccccc2)CC1
81 | ≥ 531 | CC(=O)NCCSC(=S)NCCCC[S+](C)[O-] (configuration not stated)
82 | 372 (≈ 129 µg/mL) | C[S+]([O-])CCCCNC(=S)SCc1cccc([N+](=O)[O-])c1 (configuration not stated)
83 | 1 (≈ 0.232 µg/mL) | COCCOC(=O)NCCCCN=C=S
84 | 369 (≈ 88.7 µg/mL) | O=C(NCCCCN=C=S)C1CCCCC1

Row | SMILES | solubility kinetic [µM]
85 | C[S+]([O-])CCCCCCN=C=S (configuration not stated) | ≥ 324

tested on: not listed separately; experiment: Lipophilicity, log D of the compound at pH 7.4 by chromatographic method; assay type: physicochemical; conditions: buffer

Row | chromatographic logD | SMILES
86 | 3.27 | O=C(NCCCCN=C=S)c1ccno1
87 | 4.93 | S=C=NCCN1CCSCC1
88 | 3.5 | O=C(NCCCCN=C=S)OCc1ccncc1
89 | 0.81 | CN(C)CCC[S+]([O-])CCCCN=C=S (configuration not stated)
90 | 1.47 | CN(C)CC[S+]([O-])CCCCN=C=S (configuration not stated)
91 | 2.63 | O=C(NCCCCN=C=S)c1cccnc1
92 | 2.44 | COC(=O)C(CS(=O)(=O)CCCCN=C=S)NC(C)=O (configuration not stated)
93 | 1.56 | CN1CCC(SC(=S)NCCCCS(=O)(=O)c2ccncc2)CC1
94 | 6.05 | CC(C)(C)OC(=O)N1CCC(SC(=S)NCCCCNC(=O)NCc2ccccc2)CC1
95 | 0.58 | CC(=O)NCCSC(=S)NCCCC[S+](C)[O-] (configuration not stated)
96 | 3.81 | C[S+]([O-])CCCCNC(=S)SCc1cccc([N+](=O)[O-])c1 (configuration not stated)
97 | 1.91 | CN1CCC(SC(=S)NCCCCNC(=O)Nc2ccc3ncsc3c2)CC1
98 | 3.77 | O=C(NCCCCN=C=S)Nc1ccc2scnc2c1
99 | 5.45 | CC(C)(C)OC(=O)N1CCC(SC(=S)NCCCCNC(=O)Nc2ccc3ncsc3c2)CC1
100 | 3.28 | CN1CCC(SC(=S)NCCCCNC(=O)CC2CCCCC2)CC1
101 | 5.79 | CC(C)(C)OC(=O)N1CCC(SC(=S)NCCCCNC(=O)Nc2ccc3c(c2)OCCO3)CC1

Row | SMILES | chromatographic logD
102 | C[S+]([O-])CCCCCCN=C=S (configuration not stated) | 0.9
